Tested on: subjects with moderately to severely active RA who have an inadequate response to methotrexate (MTX)
Assay: Study 1 (add-on to MTX) - Aspartate Aminotransferase (AST) levels
Assay type: in vivo, human
Conditions: 24 weeks results
Description: Double-blind, placebo-controlled add on study in subjects with moderately to severely active RA who have an inadequate response to methotrexate (MTX) (oral or parenteral).
595 subjects randomized to one of 6 dose regimens of Compound 1 (dosed as [Compound 1:HCl:3H2O]) (3 dose levels administered either once or twice daily) or placebo on top of each subject's stable dose of MTX.
Compound 1 (dosed as [Compound 1:HCl:3H2O]) is dosed for twelve weeks once daily (q.d.) (50 mg, 100 mg or 200 mg) or twice daily (b.i.d.) (25 mg, 50 mg or 100 mg); or placebo.
At Week 12, the subjects on placebo who have not achieved 20% improvement in swollen joint count (SJC66) and tender joint count (TJC68) are re-randomized automatically to receive Compound 1 (dosed as a [Compound 1:HCl:3H2O]) either at 100 mg q.d. or 50 mg b.i.d. doses in a blinded fashion; subjects on 50 mg q.d. who have not achieved 20% improvement in SJC66 and TJC68 will be assigned to 100 mg q.d. and subjects on 25 mg b.i.d. that have not achieved a 20% improvement in SJC66 and TJC68 will be assigned to 50 mg b.i.d. Subjects who switch treatment at week 12 are handled as if they discontinued at week 12 for the purpose of statistical analysis, whereas subjects in the other groups will maintain their randomized treatment until Week 24.
AST levels determination is available at Quest Diagnostics, Clinical Trials, Quest House, 125-135 Staines Road, Hounslow, Middlesex, TW3 3JB, United Kingdom under Catalogue n#84450. For Study 3, the data are obtained at BARC Europe, 3B,Industrie Park, Zwijnaarde, B-9052 Ghent, Belgium.
AST catalyzes the transamination of aspartate and 2-oxoglutarate, forming L-glutamate and oxalacetate. The oxalacetate is reduced to L-malate by malate dehydrogenase, whilst NADH is converted to NAD+, measured spectrophotometrically. Guidelines for the AST value have been issued by the association for Clinical Biochemistry and Laboratory Medicine, 130-132 Tooley Street LONDON SE1 2TU, united Kingdom, wherein the AST value should be below 34 U/l in Female and below 45 U/L in male. As disclosed in the respective study protocols for Study 1 or 2, at week 12, depending on the outcome of their treatment, the subjects may be continued in their initial treatment course, or reassigned to another treatment group in a randomized blinded fashion until week 24. Therefore, the number of subjects (N) for the period of either 12 weeks, or 24 weeks is provided to reflect this redistribution at week 12.

[1] = continued 100 mg b.i.d., week 1
[2] = continued 100 mg b.i.d., week 2
[3] = continued 100 mg b.i.d., week 4
[4] = continued 100 mg b.i.d., week 8
[5] = continued 100 mg b.i.d., week 12
[6] = continued 100 mg b.i.d., week 16
[7] = continued 100 mg b.i.d., week 20
[8] = continued 100 mg b.i.d., week 24
[9] = from 25 mg b.i.d. to 50 mg b.i.d. at 12 weeks, week 1
[10] = from 25 mg b.i.d. to 50 mg b.i.d. at 12 weeks, week 2
[11] = from 25 mg b.i.d. to 50 mg b.i.d. at 12 weeks, week 4
[12] = from 25 mg b.i.d. to 50 mg b.i.d. at 12 weeks, week 8
[13] = from 25 mg b.i.d. to 50 mg b.i.d. at 12 weeks, week 12
[14] = from 25 mg b.i.d. to 50 mg b.i.d. at 12 weeks, week 16
[15] = from 25 mg b.i.d. to 50 mg b.i.d. at 12 weeks, week 20
[16] = from 25 mg b.i.d. to 50 mg b.i.d. at 12 weeks, week 24
[17] = from 50 mg q.d. to 100 mg q.d. at 12 weeks, week 1
[18] = from 50 mg q.d. to 100 mg q.d. at 12 weeks, week 2
[19] = from 50 mg q.d. to 100 mg q.d. at 12 weeks, week 4
[20] = from 50 mg q.d. to 100 mg q.d. at 12 weeks, week 8
[21] = from 50 mg q.d. to 100 mg q.d. at 12 weeks, week 12
[22] = from 50 mg q.d. to 100 mg q.d. at 12 weeks, week 16
[23] = from 50 mg q.d. to 100 mg q.d. at 12 weeks, week 20
[24] = from 50 mg q.d. to 100 mg q.d. at 12 weeks, week 24
[25] = placebo switched to 50 mg b.i.d. at week 12, week 16
[26] = placebo switched to 50 mg b.i.d. at week 12, week 20
[27] = placebo switched to 50 mg b.i.d. at week 12, week 24
[28] = placebo switched to 100 mg q.d. at week 12, week 16
[29] = placebo switched to 100 mg q.d. at week 12, week 20
[30] = placebo switched to 100 mg q.d. at week 12, week 24

O=C(Nc1nc2cccc(-c3ccc(CN4CCS(=O)(=O)CC4)cc3)n2n1)C1CC1 [Compound 1, cyclopropanecarboxylic acid {5-[4-(1,1-dioxo-thiomorpholin-4-ylmethyl)-phenyl]-[1,2,4]triazolo[1,5-a]pyridin-2-yl}-amide]
Study 1 - AST Mean CFB (continued 50 mg q.d., week 12): 0.6 IU/L
Study 1 - AST Mean percentage CFB (continued 50 mg q.d., week 12): 11.4%
Study 1 - AST Mean CFB (continued 50 mg q.d., week 16): 1.4 IU/L
Study 1 - AST Mean percentage CFB (continued 50 mg q.d., week 16): 15.1%
Study 1 - AST Mean CFB (continued 50 mg q.d., week 20): 2.1 IU/L
Study 1 - AST Mean percentage CFB (continued 50 mg q.d., week 20): 16.8%
Study 1 - AST Mean CFB (continued 50 mg q.d., week 24): 1.0 IU/L
Study 1 - AST Mean percentage CFB (continued 50 mg q.d., week 24): 12.9%
Study 1 - AST Mean CFB [1]: 1.4 IU/L
Study 1 - AST Mean percentage CFB [1]: 10.0%
Study 1 - AST Mean CFB [2]: 2.3 IU/L
Study 1 - AST Mean percentage CFB [2]: 14.1%
Study 1 - AST Mean CFB [3]: 2.6 IU/L
Study 1 - AST Mean percentage CFB [3]: 19.1%
Study 1 - AST Mean CFB [4]: 1.9 IU/L
Study 1 - AST Mean percentage CFB [4]: 17.4%
Study 1 - AST Mean CFB [5]: 2.5 IU/L
Study 1 - AST Mean percentage CFB [5]: 20.1%
Study 1 - AST Mean CFB [6]: 3.5 IU/L
Study 1 - AST Mean percentage CFB [6]: 25.2%
Study 1 - AST Mean CFB [7]: 3.0 IU/L
Study 1 - AST Mean percentage CFB [7]: 23.1%
Study 1 - AST Mean CFB [8]: 5.0 IU/L
Study 1 - AST Mean percentage CFB [8]: 37.6%
Study 1 - AST Mean CFB (continued 100 mg q.d., week 1): 3.0 IU/L
Study 1 - AST Mean percentage CFB (continued 100 mg q.d., week 1): 13.5%
Study 1 - AST Mean CFB (continued 100 mg q.d., week 2): 1.0 IU/L
Study 1 - AST Mean percentage CFB (continued 100 mg q.d., week 2): 9.4%
Study 1 - AST Mean CFB (continued 100 mg q.d., week 4): 1.6 IU/L
Study 1 - AST Mean percentage CFB (continued 100 mg q.d., week 4): 11.2%
Study 1 - AST Mean CFB (continued 100 mg q.d., week 8): 2.8 IU/L
Study 1 - AST Mean percentage CFB (continued 100 mg q.d., week 8): 17.1%
Study 1 - AST Mean CFB (continued 100 mg q.d., week 12): 2.4 IU/L
Study 1 - AST Mean percentage CFB (continued 100 mg q.d., week 12): 15.7%
Study 1 - AST Mean CFB (continued 100 mg q.d., week 16): 1.5 IU/L
Study 1 - AST Mean percentage CFB (continued 100 mg q.d., week 16): 11.5%
Study 1 - AST Mean CFB (continued 100 mg q.d., week 20): 2.6 IU/L
Study 1 - AST Mean percentage CFB (continued 100 mg q.d., week 20): 19.2%
Study 1 - AST Mean CFB (continued 100 mg q.d., week 24): 4.4 IU/L
Study 1 - AST Mean percentage CFB (continued 100 mg q.d., week 24): 28.6%
Study 1 - AST Mean CFB (continued 200 mg q.d., week 1): 3.1 IU/L
Study 1 - AST Mean percentage CFB (continued 200 mg q.d., week 1): 16.1%
Study 1 - AST Mean CFB (continued 200 mg q.d., week 2): 1.9 IU/L
Study 1 - AST Mean percentage CFB (continued 200 mg q.d., week 2): 12.8%
Study 1 - AST Mean CFB (continued 200 mg q.d., week 4): 2.7 IU/L
Study 1 - AST Mean percentage CFB (continued 200 mg q.d., week 4): 18.7%
Study 1 - AST Mean CFB (continued 200 mg q.d., week 8): 4.5 IU/L
Study 1 - AST Mean percentage CFB (continued 200 mg q.d., week 8): 27.2%
Study 1 - AST Mean CFB (continued 200 mg q.d., week 12): 4.8 IU/L
Study 1 - AST Mean percentage CFB (continued 200 mg q.d., week 12): 28.8%
Study 1 - AST Mean CFB (continued 200 mg q.d., week 16): 6.8 IU/L
Study 1 - AST Mean percentage CFB (continued 200 mg q.d., week 16): 36.8%
Study 1 - AST Mean CFB (continued 200 mg q.d., week 20): 4.0 IU/L
Study 1 - AST Mean percentage CFB (continued 200 mg q.d., week 20): 23.3%
Study 1 - AST Mean CFB (continued 200 mg q.d., week 24): 5.2 IU/L
Study 1 - AST Mean percentage CFB (continued 200 mg q.d., week 24): 30.6%
Study 1 - AST Mean CFB [9]: −5.0 IU/L
Study 1 - AST Mean percentage CFB [9]: −12.5%
Study 1 - AST Mean CFB [10]: −2.3 IU/L
Study 1 - AST Mean percentage CFB [10]: −0.7%
Study 1 - AST Mean CFB [11]: −2.9 IU/L
Study 1 - AST Mean percentage CFB [11]: −2.7%
Study 1 - AST Mean CFB [12]: −4.1 IU/L
Study 1 - AST Mean percentage CFB [12]: −7.2%
Study 1 - AST Mean CFB [13]: −1.0 IU/L
Study 1 - AST Mean percentage CFB [13]: 4.5%
Study 1 - AST Mean CFB [14]: −3.3 IU/L
Study 1 - AST Mean percentage CFB [14]: −2.3%
Study 1 - AST Mean CFB [15]: −0.6 IU/L
Study 1 - AST Mean percentage CFB [15]: 8.2%
Study 1 - AST Mean CFB [16]: 0.6 IU/L
Study 1 - AST Mean percentage CFB [16]: 14.2%
Study 1 - AST Mean CFB [17]: 0.3 IU/L
Study 1 - AST Mean percentage CFB [17]: 5.0%
Study 1 - AST Mean CFB [18]: 0.0 IU/L
Study 1 - AST Mean percentage CFB [18]: 3.4%
Study 1 - AST Mean CFB [19]: −0.5 IU/L
Study 1 - AST Mean percentage CFB [19]: 3.6%
Study 1 - AST Mean CFB [20]: −0.4 IU/L
Study 1 - AST Mean percentage CFB [20]: 3.0%
Study 1 - AST Mean CFB [21]: 0.1 IU/L
Study 1 - AST Mean percentage CFB [21]: 4.2%
Study 1 - AST Mean CFB [22]: −0.9 IU/L
Study 1 - AST Mean percentage CFB [22]: −0.2%
Study 1 - AST Mean CFB [23]: 0.4 IU/L
Study 1 - AST Mean percentage CFB [23]: 4.9%
Study 1 - AST Mean CFB [24]: −1.7 IU/L
Study 1 - AST Mean percentage CFB [24]: −2.5%
Study 1 - AST Mean CFB [25]: 2.1 IU/L
Study 1 - AST Mean percentage CFB [25]: 14.9%
Study 1 - AST Mean CFB [26]: −0.1 IU/L
Study 1 - AST Mean percentage CFB [26]: 1.9%
Study 1 - AST Mean CFB [27]: 3.5 IU/L
Study 1 - AST Mean percentage CFB [27]: 19.7%
Study 1 - AST Mean CFB [28]: 1.3 IU/L
Study 1 - AST Mean percentage CFB [28]: 1.0%
Study 1 - AST Mean CFB [29]: 1.2 IU/L
Study 1 - AST Mean percentage CFB [29]: 9.8%
Study 1 - AST Mean CFB [30]: 3.2 IU/L
Study 1 - AST Mean percentage CFB [30]: 23.1%

Reference: US20180200257A1, “METHODS FOR THE TREATMENT OF INFLAMMATORY DISORDERS” (Galapagos NV, priority 2015, published 2018)
